Measurements from patent US6207674A, “Dextromethorphan and oxidase inhibitor for weaning patients from narcotics and anti-depressants” (priority 1999, dated 2001).
pKi: −log10 of the molar value. Read-outs that look alike come from different tables or passages of the source.

Tests used:
[1] = test system: cytochrome P450-2D6 enzyme; details: cited from earlier work
[2] = test system: morphine and anti-depressant dependence; assay: Patient Number 1, initial 3-week trial of DM alone (neuropathic pain, weaning from morphine and anti-depressants); type: in vivo, human
Excerpt: They took capsules with 30 milligrams of DM, twice each day.

pain = details: DM combined with morphine; published reports; cited from earlier work
[3] = coadministration with DM; cited from earlier work
[4] = read-out: Michaelis-Menton inhibition (Ki) value, P450-2D6, in vitro, Inaba et al 1985
[5] = DM 30 mg twice a day, oral, about three weeks, no quinidine

SMILES	pKi [1, 4]	further results
C=C[C@H]1C[N@@]2CC[C@H]1C[C@H]2[C@H](O)c1ccnc2ccc(OC)cc12 [quinine]	4.82	
CC(C)NCC(O)COc1cccc2ccccc12 (stereo not shown) [propranolol]	4.82	
COc1ccc2c(c1)[C@]13CCCC[C@@H]1[C@H](C2)N(C)CC3 [DM, dextromethorphan]		symptoms reported at follow-up exam [2, 5]: symptoms were unchanged; use and dosages of morphine and WELLBUTRIN [2, 5]: remained the same; nighttime dosage of ELAVIL at follow-up ([2]; reduced from 250 mg, DM 30 mg twice a day, about three weeks, no quinidine): 100 mg; overall result of DM by itself (summary) ([2]; without an oxidase inhibitor): no substantial benefit; potentiation of pain-relieving activity of morphine (pain): potentiated the pain-relieving activity of morphine
COc1ccc(Cc2nccc3cc(OC)c(OC)cc23)cc1OC [papaverine]	4.60	
CC(C)(C)NC[C@H](O)COc1nsnc1N1CCOCC1 [timolol]	4.74	
COCCc1ccc(OCC(O)CNC(C)C)cc1 (racemic) [metaprolol]		pKi [1]: 4.74
C=CCOc1ccccc1OCC(O)CNC(C)C (stereo not shown) [oxprenolol]	4.82	
CNCCC=C1c2ccccc2CCc2ccccc21 [nortriptyline]	4.82	
O=c1[nH]c2ccccc2n1CCCN1CCC(n2c(=O)[nH]c3cc(Cl)ccc32)CC1 [domperidone]	5.10	
C=C[C@H]1C[N@@]2CC[C@H]1C[C@@H]2[C@@H](O)c1ccnc2ccc(OC)cc12 [Quinidine, quinidine]	7.22	effect on DM concentration / level in blood [3]: increase the level of DM in the blood of most patients
CN1[C@@H](CC(=O)c2ccccc2)CCC[C@H]1C[C@H](O)c1ccccc1 [lobeline]	5.70	
NC(=O)C1(N2CCCCC2)CCN(CCCC(=O)c2ccc(F)cc2)CC1 [pipamperone]		pKi [1]: 5.40
CNCCC(Oc1ccc(C(F)(F)F)cc1)c1ccccc1 (stereo not shown) [Fluoxetine, fluoxetine]		effect on DM concentration / level in blood [3]: increase the concentrations of DM
Cc1cccc(C)c1OCC(C)N (stereo not shown) [mexiletine]	4.52	
CC(CCc1ccccc1)NCC(O)c1ccc(O)c(C(N)=O)c1 (stereo not shown) [labetalol]	5.15	
O=C(CCCN1CCC(O)(c2ccc(Cl)cc2)CC1)c1ccc(F)cc1 [haloperidol]		pKi [1]: 6.00
CC[C@H]1[C@@H]2C[C@H]3[C@@H]4N(C)c5ccccc5[C@]45C[C@@H]([C@H]2[C@H]5O)N3[C@@H]1O [ajmaline]	5.70	
